Measurements: patent publication US12383619B2, “Use of glutamate modulating agents with immunotherapies to treat cancer” (Biohaven Therapeutics Ltd., priority 2016, dated 2025)
Where two headings read alike, the source gives them in different places.

Experiments:
GL261 cells = experiment: Orthotopic GL261 glioma model, survival of mice; assay type: in vivo, C57BL/6J mice
Experimental: In this Example, the effects of the combination of a glutamate modulator, BHV-4157, in combination with an immunotherapeutic agent, anti-PD-1, were compared to either alone in a glioma model substantially as decribed in Zeng, J., et al., Int J Radiat Oncol Biol Phys., 2013 Jun. 1; 86(2):343-349, portions of which are reproduced below.
GL261-Luc cells are grown in Dulbecco's Modified Eagle Medium (DMEM)+10% fetal bovineserum+1% penicillinstreptomycin at 37° C. in a humidified incubator maintained at 5% CO2 and 5% O2 (Gibco).
Female C57BL/6J mice (Harlan), 4 to 6 weeks old or 6 to 8 weeks old, are used for orthotopic glioma experiments as described in Sonabend A M, Velicu S, Ulasov IV, et al. A safety and efficacy study of local delivery of interleukin 12 transgene by PPC polymer in a model of experimental glioma. Anticancer Drugs. 2008;19:133-142. To establish syngeneic gliomas, 130,000 GL261-Luc cells are stereotactically injected in a 1 μl volume into the left striatum over 1 minute into the following coordinates: 1 mm anterior, 1 mm lateral from bregma, and 3 mm deep from the cortical surface. Tumor burden is monitored by luciferase imaging on days 7, 21 and 35 after implantation, and the mice are randomly allocated into treatment arms based on tumor radiance, so that the average tumor radiance in each group is roughly equivalent. The animals are euthanized when they show predetermined signs of neurologic deficits (failure to ambulate, weight loss >20% body mass, lethargy, hunched posture). […] Each arm has 6 to 10 mice in survival experiments. All experiments are repeated at least in triplicate.
Hamster antimurine PD-1 monoclonal antibody producing hybridoma G4 are used to produce antibodies as described in Hirano F, Kaneko K, Tamura H, et al. Blockade of B7-H1 and PD-1 by monoclonal antibodies potentiates cancer therapeutic immunity. Cancer Res. 2005;65:1089-1096.
Female C57BL/6J mice, 4 to 6 weeks old, were implanted intrancranially in the left striatum with 130,000 GL261 cells each. The mice were housed and maintained according to the institutional Animal Care and Use Committee protocol in the Johns Hopkins University Animal Facility. The mice were imaged by bioluminescent IVIS® imaging (Perkin Elmer) at day 7, 21, and 35 to assess tumor burden and randomly assigned to groups, 10 mice per arm, as follows: • 1. Control • 2. anti-PD-1 • 3. Trigriluzole 15 mg/kg • 4. Trigriluzole 30 mg/kg • 5. Trigriluzole 45 mg/kg • 6. anti-PD-1+Trigriluzole 15 mg/kg • 7. anti-PD-1+Trigriluzole 30 mg/kg • 8. anti-PD-1+Trigriluzole 45 mg/kg
Day 0 represents the date of intracranial implantation. Control arm 1 received no treatment. Control arm 2 received αPD-1 alone at a dose of 200 μg/animal via intraperitoneal injection on days 10, 12, 14. Control arms 3, 4 and 5 received BHV-4157 alone at doses of 15, 30 and 45 mg/kg (respectively) via intraperitoneal injection daily beginning on day 10. Control arms 6, 7 and 8 received BHV-4157 at doses of 15, 30 and 45 mg/kg (respectively) via intraperitoneal injection daily beginning on day 10 and αPD-1 at a dose of 200 μg/animal via intraperitoneal injection on days 10, 12, 14.
Animals were euthanized according to humane endpoints including central nervous system disturbances, hunched posture, lethargy, weight loss, and inability to ambulate.

[1] = test system: advanced (unresectable or metastatic) melanoma; conditions: cited from earlier work
PD-1 = target: T1, PD-1 (Homo sapiens, UniProt Q15116); conditions: 15 subjects, 0.3 mg/kg to 10 mg/kg, across all doses; cited from earlier work
T1 construct: indicate that PD-1 occupancy appears to be dose-independent in this dose range; host or cells: endogenous receptor in dosed subjects

[2] = test system: advanced (unresectable or metastatic) melanoma; conditions: cited from earlier work; for median OS: 3 mg/kg monotherapy group
advanced melanoma = conditions: 3 mg/kg every 3 weeks, cited from earlier work
[3] = nivolumab 3 mg/kg every 2 weeks vs dacarbazine
[4] = patients who required re-treatment, ipilimumab monotherapy group

T1 sequence (Q15116 25-288): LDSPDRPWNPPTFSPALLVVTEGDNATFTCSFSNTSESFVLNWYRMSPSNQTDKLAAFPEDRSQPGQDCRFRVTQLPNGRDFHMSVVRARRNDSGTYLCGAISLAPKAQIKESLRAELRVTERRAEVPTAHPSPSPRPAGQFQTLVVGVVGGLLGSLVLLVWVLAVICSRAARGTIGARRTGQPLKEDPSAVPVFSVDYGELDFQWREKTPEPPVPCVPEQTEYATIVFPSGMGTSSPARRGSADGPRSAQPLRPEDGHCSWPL

Compound: CN(CC(=O)Nc1nc2ccc(OC(F)(F)F)cc2s1)C(=O)CNC(=O)CN [BHV-4157, 2-Amino-N-{[methyl({[6-(trifluoromethoxy)-1,3-benzothiazol-2-yl]carbamoyl}methyl)carbamoyl]methyl}acetamide]
- Percent survival of mice after tumor implantation (GL261 cells; Arm 3: 15 mg/kg i.p. daily from day 10, day 0): 100%
- Percent survival of mice after tumor implantation (GL261 cells; Arm 3: 15 mg/kg i.p. daily from day 10, day 21): 90%
- Percent survival of mice after tumor implantation (GL261 cells; Arm 3: 15 mg/kg i.p. daily from day 10, day 22): 80%
- Percent survival of mice after tumor implantation (GL261 cells; Arm 3: 15 mg/kg i.p. daily from day 10, day 23): 70%
- Percent survival of mice after tumor implantation (GL261 cells; Arm 3: 15 mg/kg i.p. daily from day 10, day 24): 50%
- Percent survival of mice after tumor implantation (GL261 cells; Arm 3: 15 mg/kg i.p. daily from day 10, day 26): 30%
- Percent survival of mice after tumor implantation (GL261 cells; Arm 3: 15 mg/kg i.p. daily from day 10, day 27): 20%
- Percent survival of mice after tumor implantation (GL261 cells; Arm 3: 15 mg/kg i.p. daily from day 10, day 28): 10%
- Percent survival of mice after tumor implantation (GL261 cells; Arm 3: 15 mg/kg i.p. daily from day 10, day 36): 0%
- Percent survival of mice after tumor implantation (GL261 cells; Arm 4: 30 mg/kg i.p. daily from day 10, day 0): 100%
- Percent survival of mice after tumor implantation (GL261 cells; Arm 4: 30 mg/kg i.p. daily from day 10, day 21): 90%
- Percent survival of mice after tumor implantation (GL261 cells; Arm 4: 30 mg/kg i.p. daily from day 10, day 23): 70%
- Percent survival of mice after tumor implantation (GL261 cells; Arm 4: 30 mg/kg i.p. daily from day 10, day 24): 50%
- Percent survival of mice after tumor implantation (GL261 cells; Arm 4: 30 mg/kg i.p. daily from day 10, day 26): 30%
- Percent survival of mice after tumor implantation (GL261 cells; Arm 4: 30 mg/kg i.p. daily from day 10, day 29): 20%
- Percent survival of mice after tumor implantation (GL261 cells; Arm 4: 30 mg/kg i.p. daily from day 10, day 34): 10%
- Percent survival of mice after tumor implantation (GL261 cells; Arm 4: 30 mg/kg i.p. daily from day 10, day 60): 10%
- Percent survival of mice after tumor implantation (GL261 cells; Arm 5: 45 mg/kg i.p. daily from day 10, day 0): 100%
- Percent survival of mice after tumor implantation (GL261 cells; Arm 5: 45 mg/kg i.p. daily from day 10, day 21): 90%
- Percent survival of mice after tumor implantation (GL261 cells; Arm 5: 45 mg/kg i.p. daily from day 10, day 22): 80%
- Percent survival of mice after tumor implantation (GL261 cells; Arm 5: 45 mg/kg i.p. daily from day 10, day 23): 70%
- Percent survival of mice after tumor implantation (GL261 cells; Arm 5: 45 mg/kg i.p. daily from day 10, day 24): 60%
- Percent survival of mice after tumor implantation (GL261 cells; Arm 5: 45 mg/kg i.p. daily from day 10, day 25): 50%
- Percent survival of mice after tumor implantation (GL261 cells; Arm 5: 45 mg/kg i.p. daily from day 10, day 27): 20%
- Percent survival of mice after tumor implantation (GL261 cells; Arm 5: 45 mg/kg i.p. daily from day 10, day 28): 10%
- Percent survival of mice after tumor implantation (GL261 cells; Arm 5: 45 mg/kg i.p. daily from day 10, day 29): 0%

Compound: nivolumab
- Complete response (CR) (number) ([1]; 3 mg/kg every 2 weeks, n = 210): 16
- Objective response (number) ([1]; 3 mg/kg every 2 weeks, n = 210): 84
- Overall survival: Events ([1]; 3 mg/kg every 2 weeks, n = 210): 50
- Overall survival: Events, figure in parentheses ([1]; 3 mg/kg every 2 weeks, n = 210): (23.8)
- Partial response (PR) (number) ([1]; 3 mg/kg every 2 weeks, n = 210): 68
- Progression-free survival: Events ([1]; 3 mg/kg every 2 weeks, n = 210): 108
- Progression-free survival: Events, figure in parentheses ([1]; 3 mg/kg every 2 weeks, n = 210): (51.4)
- Stable disease (SD) (number) ([1]; 3 mg/kg every 2 weeks, n = 210): 35
- Complete response (CR) (%) ([1]; 3 mg/kg every 2 weeks): (7.6%)
- Median duration of response ([1]; 3 mg/kg every 2 weeks): Not reached
- Median time to response ([1]; 3 mg/kg every 2 weeks): 2.1 Months
- Objective response (%) ([1]; 3 mg/kg every 2 weeks): (40.0%)
- Overall survival: Median ([1]; 3 mg/kg every 2 weeks): Not reached
- Overall survival: Rate At 6 months ([1]; 3 mg/kg every 2 weeks): 84.1
- Overall survival: Rate At 12 months ([1]; 3 mg/kg every 2 weeks): 72.9
- Partial response (PR) (%) ([1]; 3 mg/kg every 2 weeks): (32.4%)
- Progression-free survival: Median ([1]; 3 mg/kg every 2 weeks): 5.1
- Progression-free survival: Rate At 6 months ([1]; 3 mg/kg every 2 weeks): 48.0
- Progression-free survival: Rate At 12 months ([1]; 3 mg/kg every 2 weeks): 41.8
- Stable disease (SD) (%) ([1]; 3 mg/kg every 2 weeks): (16.7%)
- Objective response: Odds ratio [1, 3]: 4.06
- Overall survival: Hazard ratio [1, 3]: 0.42
- Progression-free survival: Hazard ratio [1, 3]: 0.43
- mean occupancy rate (PD-1) (PD-1): 85%
- mean plateau occupancy (PD-1) (PD-1): 72%

Compound: Ipilimumab: fully human IgG1 monoclonal antibody that blocks the binding of CTLA-4 to its B7 ligands
- median OS ([2]; patients with CR or PR): not reached
- median OS ([2]; patients with PD): 8 months
- median OS ([2]; patients with SD): 22 months
- OS at 1 year % (95% CI) ([2]; 3 mg/kg monotherapy, n = 137): 46% (37.0, 54.1)
- OS at 2 years % (95% CI) ([2]; 3 mg/kg monotherapy, n = 137): 24% (16.0, 31.5)
- Overall survival: Median Months ([2]; 3 mg/kg monotherapy, n = 137): 10 months
- hazard ratio (HR) for comparison of OS ([2]; ipilimumab monotherapy vs gp100): 0.66
- BORR [2, 4]: 38%
- disease control rate (DCR) (CR+PR+SD) [2, 4]: 75%
- Best overall response: ORR % (advanced melanoma): 12%
- Complete response % (advanced melanoma): 1%
- OS: % of patients with event (advanced melanoma): (40%)
- OS: Median in months (advanced melanoma): Not reached
- OS: Number of patients with event (advanced melanoma): 112
- PFS: % of patients with event (advanced melanoma): (68%)
- PFS: Median in months (advanced melanoma): 2.8 months
- PFS: Number of patients with event (advanced melanoma): 188
- Partial response % (advanced melanoma): 10%
- Response duration: % ongoing (advanced melanoma): 88%
- Response duration: Median in months (advanced melanoma; patients with confirmed complete or partial response): Not reached
